Target: T1, Human AMPK α2β2γ1 (Homo sapiens, UniProt O43741+P54619+P54646)
T1 construct: The full length cDNAs of human AMPK β2 (NM_005399.3) and human AMPK α2 (NM_006252.3); The full length cDNAs of human AMPK β2 (NM_005399.3); the full length cDNA of human AMPK γ1 (NM_002733.3); 6xHis (N); made in house; host or cells: Escherichia coli BL21 CodonPlus (DE3)-RIL (AMPK); BL21 Star (DE3) (CaMKK2)
Test: Test Example 2: AMPK activator evaluation, mobility-shift kinase assay after CaMKK2 phosphorylation
Type: biochemical
Details: for EC150: compound concentration showing 150% relative to the control (100%); for Emax: maximum rate of increase in activity within the measurement range, control = 100%
Experimental: The full length cDNAs of human AMPK β2 (NM_005399.3) and human AMPK α2 (NM_006252.3) were inserted into the MCS1 and MCS2 of the pETDuet-1 vector to prepare a human AMPK β2 and human AMPK α2 (6× His tag at the 5′ terminus) expressing plasmid. The plasmid was cotransfected with an expression plasmid, in which the full length cDNA of human AMPK γ1 (NM_002733.3) had been inserted into pET28b(+), into BL21 CodonPlus (DE3)-RIL to obtain an expression strain. The expression strain was cultured in TB medium, followed by induction with 0.5 mM IPTG, and cultured at 25° C. for 3 hours and then harvested. After ultrasonication, supernatant was collected and applied to Histrap FF column (GE) and RESOUECE Q column (GE) to prepare 12.5 mg of purified sample containing three types of subunit from 1.8 L of broth.
An expression vector, in which the full length cDNA of human CAMKK β (NM_172226.1) had been inserted into pGEX-6P-3, was transfected into BL21 Star (DE3). The expression strain was cultured in TB medium, followed by induction with 0.5 mM IPTG, and cultured at 25° C. for 3 hours and then harvested. After ultrasonication, supernatant was collected and applied to GSTrap FF column (GE) to prepare 14 mg of GST-fused CAMKK β from 720 ml of broth.
Thus, phosphorylation treatment was carried out as pretreatment.
Human AMPK α2β2γ1 in an amount to give a conversion rate of approximately 10% by reaction for 2 hours, and CaMKK2 in an amount capable of sufficiently imparting activity to AMPK for one hour were mixed in a buffer solution consisting of a 50 mM HEPES-NaOH buffer solution (pH 7.0), 100 mM NaCl, 5 mM magnesium chloride, 0.1% bovine serum albumin, 0.2 mM sodium orthovanadate(V), 1 mM ethylene glycol-bis(2-aminoethyl ether)-N,N,N′,N′-tetraacetic acid (EGTA), 5 mM disodium β-glycerophosphate, 1 mM dithiothreitol and 0.2 mM ATP, and the obtained liquid was left to stand at 25° C. for 1 to 1.5 hours to sufficiently phosphorylate AMPK.
After that, to the enzyme liquid, which had been subjected to phosphorylation treatment, a compound dissolved in DMSO was added so as to have a 1% DMSO concentration. The obtained liquid was left to stand for 10 minutes.
To the liquid, a substrate solution consisting of a 50 mM HEPES-NaOH buffer solution (pH 7.0), 100 mM NaCl, 10 mM magnesium chloride, 0.1% bovine serum albumin, 0.2 mM sodium orthovanadate(V), 1 mM ethylene glycol-bis(2-aminoethyl ether)-N,N,N′,N′-tetraacetic acid (EGTA), 5 mM disodium β-glycerophosphate, 2 mM dithiothreitol, 0.4 mM ATP and 3 μM FL-Peptide 7 (manufactured by Caliper Life Sciences, Inc.) was added in equal amount (10 μl in total). The obtained liquid was allowed to react at 25° C. for 2 hours, and 10 μl of 20 mM EDTA was then added thereto to stop the reaction.
To detect phosphorylated fluorescent substrates, the reaction liquid was applied to a measuring device, LabChip EZ Reader II manufactured by Caliper Life Science, Inc., for detecting fluorescence by using differences in mobility due to differences in charge. The setting conditions for the device were pressure, −1.5 PSI; upstream voltage, −2250 V; downstream voltage, −400 V; post sample buffer sip time, 40 seconds; final delay, 120 seconds; and peak order, Product First.
A conversion rate was calculated from the peak heights of the resulting substrate and product. The conversion rate when not containing a compound was used as a control, and a concentration dependent curve was made by plotting the rate of increase in activity to the control at each concentration of a compound.

T1 sequence (P54646 whole entry): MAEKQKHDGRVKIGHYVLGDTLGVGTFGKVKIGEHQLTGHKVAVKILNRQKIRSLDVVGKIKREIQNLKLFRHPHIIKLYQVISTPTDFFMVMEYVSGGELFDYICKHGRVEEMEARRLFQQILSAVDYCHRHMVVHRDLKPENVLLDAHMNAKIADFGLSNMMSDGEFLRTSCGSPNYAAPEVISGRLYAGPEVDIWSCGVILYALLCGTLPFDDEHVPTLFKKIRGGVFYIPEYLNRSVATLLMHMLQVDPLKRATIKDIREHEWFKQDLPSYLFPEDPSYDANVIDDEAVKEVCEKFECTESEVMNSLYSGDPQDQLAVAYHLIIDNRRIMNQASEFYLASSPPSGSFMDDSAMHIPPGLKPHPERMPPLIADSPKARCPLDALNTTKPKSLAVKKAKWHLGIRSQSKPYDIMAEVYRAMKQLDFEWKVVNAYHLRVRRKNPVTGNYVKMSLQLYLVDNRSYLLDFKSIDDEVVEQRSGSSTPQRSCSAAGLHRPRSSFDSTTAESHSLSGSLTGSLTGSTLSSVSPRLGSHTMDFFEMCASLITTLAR
T1 sequence (O43741 whole entry): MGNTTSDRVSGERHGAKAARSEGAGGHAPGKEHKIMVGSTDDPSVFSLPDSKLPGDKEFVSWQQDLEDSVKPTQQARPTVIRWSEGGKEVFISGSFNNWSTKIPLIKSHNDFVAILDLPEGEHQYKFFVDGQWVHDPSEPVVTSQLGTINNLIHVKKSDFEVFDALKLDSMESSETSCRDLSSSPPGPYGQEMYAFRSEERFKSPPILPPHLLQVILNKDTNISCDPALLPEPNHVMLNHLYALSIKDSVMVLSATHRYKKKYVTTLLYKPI
T1 sequence (P54619 whole entry): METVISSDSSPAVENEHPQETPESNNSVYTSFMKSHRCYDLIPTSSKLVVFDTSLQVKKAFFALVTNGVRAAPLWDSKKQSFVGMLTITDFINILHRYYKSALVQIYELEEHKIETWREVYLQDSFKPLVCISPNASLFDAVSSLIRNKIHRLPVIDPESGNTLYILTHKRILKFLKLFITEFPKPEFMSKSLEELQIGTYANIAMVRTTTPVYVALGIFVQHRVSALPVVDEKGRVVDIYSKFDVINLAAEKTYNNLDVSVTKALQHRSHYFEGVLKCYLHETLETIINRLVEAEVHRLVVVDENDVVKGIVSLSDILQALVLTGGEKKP

SMILES | EC150 | Emax
Oc1cccc(F)c1CNc1nc2nc(O[C@@H]3CO[C@H]4[C@@H]3OC[C@H]4O)[nH]c2cc1Cl [Compound I-2-1] | 30 nM | 588%
OCCOc1cc(F)c(CNc2nc3nc(O[C@@H]4CO[C@H]5[C@@H]4OC[C@H]5O)[nH]c3cc2Cl)c(F)c1 [Compound I-1-15] | 5.8 nM | 894%
OC[C@@H]1C[C@H](Oc2nc3nc(NCc4c(F)cccc4F)c(Cl)cc3[nH]2)CO1 [Compound I-2-19] | 74 nM | 506%
OCCCOc1cc(F)c(CNc2nc3nc(O[C@@H]4CO[C@H]5[C@@H]4OC[C@H]5O)[nH]c3cc2Cl)c(F)c1 [Compound I-1-36] | 16 nM | 475%
O[C@@H]1CO[C@H]2[C@@H]1OC[C@H]2Oc1nc2nc(NCc3c(F)cccc3F)c(Cl)cc2[nH]1 [Compound I-1-1] | 29 nM | 484%
O[C@@H]1CO[C@H]2[C@@H]1OC[C@H]2Oc1nc2nc(NCc3c(F)cc(Cl)cc3F)c(Cl)cc2[nH]1 [Compound I-1-14] | 42 nM | 750%

Reference: patent publication US10123994B2, “Heterocyclic derivative having AMPK-activating activity” (SHIONOGI & CO., LTD., priority 2014, dated 2018)
